According to patent publication US20150314021A1, “STERILIZATION METHOD COMPRISING STERILIZATION FLUID AND ULTRASONICALLY GERERATED CAVITATION MICROBUBBLES” (DEVIS TECHNOLOGIES INC., priority 2012, published 2015):
Where two headings read alike, the source gives them in different places.

Columns and labels:
[1] = system: Bacillus atrophaeus and Bacillus stearothermophilus; experiment: Reduction in viable cell count after 5 min exposure to sterilant and/or ultrasound; assay type: cell-based
Method: Comparative testing with exposure for 5 min to ultrasound at 250 kHz, 500 kHz and 1 MHz and using ultrasound and sterilant in separation as well as in combination was conducted and the reduction in viable cell count was determined using standard methodology.

[2] = system: Bacillus atrophaeus and Bacillus stearothermophilus; experiment: Growth of surviving bacteria colonies after exposure; assay type: cell-based; conditions: 500 kHz test; observed at 24, 48 and 96 hours (FIGS. 8 and 9)
Text: In the parallel tests with hydrogen peroxide and ultrasound, the effect was much less significant (see FIG. 10) than with the test series using ultrasound and ozone. The effect seems to be more evident with ozone than with hydrogen peroxide. […] At the very least their reproductive system appears to have been severely compromised.

[3] = 500 kHz test series, cells suspended in distilled water, ozone 3.7 ppm, hydrogen peroxide 1.5% w/w, glutaraldehyde 0.2%, control normalized 100%

Structure (SMILES) | Percentage reduction in number of viable cells upon a 5 minute exposure [1, 3] [%] | inhibition at 1.5 % strength ([1]; 1 MHz test series, cells suspended in distilled water, ozone 3.7 ppm, hydrogen peroxide 1.5% w/w, control normalized 100%, read-out: Percentage reduction in number of viable cells upon a 5 minute exposure) [%] | inhibition at 1.5 % strength ([1]; read-out: Percentage reduction in number of viable cells upon a 5 minute exposure, 500 kHz test series, cells suspended in distilled water, ozone 3.7 ppm, hydrogen peroxide 1.5% w/w, glutaraldehyde 0.2%, control normalized 100%) [%] | Percentage reduction in number of viable cells upon a 5 minute exposure ([1]; 1 MHz test series, cells suspended in distilled water, ozone 3.7 ppm, hydrogen peroxide 1.5% w/w, control normalized 100%) [%] | growth of surviving bacteria colonies after exposure [2]
O=CCCCC=O [Glutaraldehyde, glutaraldehdye] | 86 | – | – | – | –
OO [Hydrogen Peroxide, hydrogen peroxide] | – | 68 | 59 | – | –
O=[O+][O-] [Ozone] | 81 | – | – | 71 | bacteria colonies were visible after 24 hours
